Active and inactive are the calls of the source.
Tests used:
[1] = molecular target: 5-hydroxytryptamine receptor 1E (Homo sapiens, UniProt P28566); assay: Counterscreen assay for S1P3 antagonists: Dose response cell-based high throughput screening assay to identify antagonists of the 5-Hydroxytryptamine Receptor Subtype 1E (5HT1E). [Related pubchem assays: 1429, 485 ]; format: functional
[2] = molecular target: Sphingosine 1-phosphate receptor 3 (Homo sapiens, UniProt Q99500); assay: Dose response cell-based high throughput screening assay for antagonists of the Sphingosine 1-Phosphate Receptor 3 (S1P3). [Related pubchem assays: 1429, 485 ]; format: functional
[3] = molecular target: T1, Neuropeptide Y receptor type 2 (Homo sapiens, UniProt P49146); assay: NPY-Y2 antagonist potency, selectivity check, dose response, counter-screen for NPY-Y1 antagonist project, cell-based (AID 1278); format: functional
T1 sequence (P49146 whole entry): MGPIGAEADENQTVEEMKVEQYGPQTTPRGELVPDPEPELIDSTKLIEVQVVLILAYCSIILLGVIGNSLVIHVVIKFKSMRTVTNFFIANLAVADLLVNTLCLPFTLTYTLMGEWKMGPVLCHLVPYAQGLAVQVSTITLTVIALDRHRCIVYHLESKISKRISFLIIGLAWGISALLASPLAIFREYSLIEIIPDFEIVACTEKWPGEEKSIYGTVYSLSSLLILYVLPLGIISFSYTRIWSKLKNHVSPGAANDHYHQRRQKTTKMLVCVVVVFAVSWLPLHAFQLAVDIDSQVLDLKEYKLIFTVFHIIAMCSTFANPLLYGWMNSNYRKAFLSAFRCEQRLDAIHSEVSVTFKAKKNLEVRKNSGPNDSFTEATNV

[4] = molecular target: T2, Neuropeptide Y receptor type 1 (Homo sapiens, UniProt P25929); assay: NPY-Y1 receptor antagonist potency, dose response, cell-based (AID 1277); format: functional
T2 sequence (P25929 whole entry): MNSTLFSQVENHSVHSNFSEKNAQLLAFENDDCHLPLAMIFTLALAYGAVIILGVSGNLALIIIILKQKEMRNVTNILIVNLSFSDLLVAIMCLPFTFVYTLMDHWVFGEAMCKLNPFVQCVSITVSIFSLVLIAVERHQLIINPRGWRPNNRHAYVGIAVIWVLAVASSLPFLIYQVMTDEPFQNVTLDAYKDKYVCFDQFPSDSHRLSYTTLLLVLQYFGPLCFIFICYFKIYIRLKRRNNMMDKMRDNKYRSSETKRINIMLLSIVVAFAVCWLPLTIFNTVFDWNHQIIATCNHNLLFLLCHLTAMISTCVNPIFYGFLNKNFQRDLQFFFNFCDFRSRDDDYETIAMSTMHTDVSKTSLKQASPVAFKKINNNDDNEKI

[5] = molecular target: Peroxisome proliferator-activated receptor gamma/Nuclear receptor coactivator 2 (Homo sapiens, UniProt P37231); assay: (§1) TR-FRET dose response biochemical High Throughput Screening assay for agonists of the steroid receptor coactivator 2 (SRC-2) recruitment by the peroxisome proliferator-activated receptor gamma (PPAR gamma): non-selective agonists. [Related pubchem assays: 1297, 1032 ]; format: functional
[6] = molecular target: Photoreceptor-specific nuclear receptor (Homo sapiens, UniProt Q9Y5X4); assay: NR2E3 inverse agonists, dose response, biochemical, TR-FRET (AID 463256); format: functional
[7] = molecular target: Peroxisome proliferator-activated receptor gamma/Nuclear receptor coactivator 1 (Homo sapiens, UniProt P37231); assay: as §1, with “1 (SRC-1)” for “2 (SRC-2)”, “assays (depositor defined):AID1300, AID1808, AID504735, AID631]” for “assays: 1297, 1032 ]”; format: protein assay
[8] = molecular target: Peroxisome proliferator-activated receptor gamma/Nuclear receptor corepressor 2 (Homo sapiens, UniProt P37231+Q9Y618); assay: Counterscreen for NR2E3 inverse agonists: TR-FRET-based biochemical high throughput dose response assay to identify inverse agonists of the interaction between peroxisome proliferator-activated receptor gamma (PPARg) and nuclear receptor co-repressor 2 (NCOR2).; format: functional
[9] = molecular target: Peroxisome proliferator-activated receptor gamma/Nuclear receptor coactivator 3 (Homo sapiens, UniProt P37231); assay: as §1, with “3 (SRC-3)” for “2 (SRC-2)”, “1301 (Confirmation screen.), 1048 (Primary screen.)]” for “1297, 1032 ]”; format: functional
Estrogen receptor beta = Estrogen receptor beta (Homo sapiens, UniProt Q92731);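 also: recombinant ER-beta bound to coactivator SRC1 peptide in presence of estradiol agonist; inhibitors block coactivator peptide binding and lower the FRET signal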
Estrogen receptor = Estrogen receptor (Homo sapiens, UniProt P03372);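 also: potency for inhibiting coactivator peptide recruitment to the receptor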
[10] = molecular target: Heat shock protein HSP 90-alpha (Homo sapiens, UniProt P07900); assay: Luminescence-based dose response biochemical high throughput screening assay for inhibitors of the Heat Shock Protein 90 (HSP90). [Related pubchem assays: 1831 (Summary AID.), 1846 (Confirmation screen.), 1789 (Primary screen.)]
[11] = Luminescence-based counterscreen assay for KLF5 inhibitors: dose response cell-based high throughput screening assay to identify cytotoxic compounds using the IEC-6 intestinal epithelial cell line. [Related pubchem assays: 1700 (Primary screen.), 1834 (Confirmation screen.), 1858 (Summary AID.), 1905 (Counterscreen.)]; format: functional
[12] = inhibitors of firefly luciferase expression or activity, dose response, H4 neuroglioma cells, luminescence (AID 1990); format: functional, cell-based
[13] = inhibitors of SNCA 5'UTR-driven reporter translation, confirmation, H4 neuroglioma cells, luminescence (AID 1988); format: functional, cell-based
[14] = molecular target: T3, Microphthalmia-associated transcription factor (Homo sapiens, UniProt O75030); assay: TRPM1 promoter luciferase signal decrease, dose response, MITF inhibitor project, cell-based, SK-MEL-5, cherry-picked, set 3 (AID 493073); format: functional
T3 sequence (O75030 whole entry): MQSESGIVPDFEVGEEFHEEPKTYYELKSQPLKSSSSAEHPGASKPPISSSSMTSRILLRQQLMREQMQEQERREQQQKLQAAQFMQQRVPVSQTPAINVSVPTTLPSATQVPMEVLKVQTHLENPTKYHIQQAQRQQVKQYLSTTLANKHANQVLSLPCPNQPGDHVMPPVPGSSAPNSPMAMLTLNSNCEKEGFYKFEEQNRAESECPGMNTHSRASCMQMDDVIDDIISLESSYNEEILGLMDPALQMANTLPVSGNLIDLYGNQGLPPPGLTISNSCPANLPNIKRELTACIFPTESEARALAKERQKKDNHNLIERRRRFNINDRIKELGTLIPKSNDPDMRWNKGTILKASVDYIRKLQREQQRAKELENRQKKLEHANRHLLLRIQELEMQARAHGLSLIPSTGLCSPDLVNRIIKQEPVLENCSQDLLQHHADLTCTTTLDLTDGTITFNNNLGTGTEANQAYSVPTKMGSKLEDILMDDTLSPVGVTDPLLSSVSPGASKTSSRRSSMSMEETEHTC

[15] = molecular target: Glyceraldehyde-3-phosphate dehydrogenase (Homo sapiens, UniProt P04406)
[16] = Luminescence Cell-Based Dose Response HTS to Identify Inhibitors of 5'UTR Stem-Loop Driven Prion Protein mRNA Translation in H4 Neuroglioblastoma Cells. [Related pubchem assays: 1827 (Project Summary), 1813 (Primary HTS)]; format: functional
[17] = molecular target: T4, Heat shock factor protein 1 (Mus musculus, UniProt P38532); assay: inhibition of MG132-induced HSE-luciferase signal, confirmation, cell-based, NIH3T3, luminescence, dose retest (AID 2382); format: functional;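 also: NIH3T3 fibroblasts with HSF1-driven luciferase reporter stressed by proteasome inhibitor MG132; luminescence from HSF1-driven luciferase expression after 8 hours of MG132 stress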
T4 sequence (P38532 whole entry): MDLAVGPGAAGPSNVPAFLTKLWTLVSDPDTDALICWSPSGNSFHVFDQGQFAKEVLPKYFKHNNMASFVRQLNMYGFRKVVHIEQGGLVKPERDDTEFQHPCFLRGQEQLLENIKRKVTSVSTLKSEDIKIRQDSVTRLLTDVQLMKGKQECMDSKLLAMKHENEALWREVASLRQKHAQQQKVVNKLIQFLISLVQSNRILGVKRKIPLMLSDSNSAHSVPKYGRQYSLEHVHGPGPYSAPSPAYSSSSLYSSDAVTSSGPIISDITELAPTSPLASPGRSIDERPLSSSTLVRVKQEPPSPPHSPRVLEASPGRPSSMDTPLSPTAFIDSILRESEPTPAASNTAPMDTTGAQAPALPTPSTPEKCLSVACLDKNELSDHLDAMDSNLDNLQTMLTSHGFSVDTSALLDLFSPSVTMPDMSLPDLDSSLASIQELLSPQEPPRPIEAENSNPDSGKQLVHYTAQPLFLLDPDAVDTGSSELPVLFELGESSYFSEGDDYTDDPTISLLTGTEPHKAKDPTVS

[18] = molecular target: Luciferin 4-monooxygenase (Photinus pyralis, UniProt P08659); assay: Counter Screen for Luciferase-based Assay Positives. [Related pubchem assays: 620, 618, 411 ]
Leucine aminopeptidase = molecular target: T5, Leucine aminopeptidase (Plasmodium falciparum 3D7, UniProt Q8IL11); assay: P. falciparum M17LAP inhibitors, primary screen, biochemical, fluorogenic H-Leu-NHMec substrate, 1536-well (AID 1619); format: functional
T5 sequence (Q8IL11 whole entry): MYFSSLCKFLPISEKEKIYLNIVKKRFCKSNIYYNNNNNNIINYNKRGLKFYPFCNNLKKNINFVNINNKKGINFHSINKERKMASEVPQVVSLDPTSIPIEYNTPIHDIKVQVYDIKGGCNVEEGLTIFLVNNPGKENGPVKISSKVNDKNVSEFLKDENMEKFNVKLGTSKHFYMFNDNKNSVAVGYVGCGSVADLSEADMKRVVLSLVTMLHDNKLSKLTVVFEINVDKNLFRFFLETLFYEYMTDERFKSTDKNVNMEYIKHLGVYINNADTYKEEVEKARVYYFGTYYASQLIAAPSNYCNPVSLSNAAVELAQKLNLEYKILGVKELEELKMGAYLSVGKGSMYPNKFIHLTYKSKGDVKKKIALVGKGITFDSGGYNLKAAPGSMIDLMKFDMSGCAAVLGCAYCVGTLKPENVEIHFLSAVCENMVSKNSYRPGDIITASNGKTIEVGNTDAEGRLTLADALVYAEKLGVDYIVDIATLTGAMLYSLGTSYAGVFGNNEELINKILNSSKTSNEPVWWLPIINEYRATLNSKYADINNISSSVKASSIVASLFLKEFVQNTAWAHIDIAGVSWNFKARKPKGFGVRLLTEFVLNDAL

HT-1080 = assay: cytotoxicity in HT1080 fibrosarcoma cells, cell-based, fluorescence readout (AID 620); format: functional; conditions: Homo sapiens
Jurkat = assay: antigen receptor-induced NF-kB inhibitors, dose response, Jurkat, luciferase reporter, luminescence, B- and T-cell (AID 489004); format: functional, cell-based; conditions: Homo sapiens;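 also: NF-kB luciferase reporter Jurkat cells stimulated with PMA plus ionomycin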
[19] = cytotoxicity in HEK-293T NF-kB-Luc cells, dose response, cytotoxicity control for B/T-cell NF-kB inhibitor project, cell-based, uHTS hits (AID 489019); format: functional;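 also: IC50 reflects cytotoxicity as loss of cell viability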
[20] = molecular target: Induced myeloid leukemia cell differentiation protein Mcl-1 (Homo sapiens, UniProt Q07820); format: functional
[21] = inhibitors of Bluetongue virus cytopathic effect, confirmation, arbovirus, BSR cells (AID 1250); format: functional;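 also: protection from viral cytopathic effect measured as cell viability by ATP luminescence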
[22] = molecular target: Voltage-gated inwardly rectifying potassium channel KCNH2 (Homo sapiens, UniProt Q12809); assay: hERG protection from proarrhythmic block, potency, dose response, cell-based, thallium flux (AID 2121); format: ADME
[23] = inhibitors of intracellular T. cruzi replication, confirmation, NIH3T3 host cells, beta-gal luminescence (AID 2044); format: functional, cell-based;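 also: intracellular parasites grown in NIH/3T3 mouse fibroblasts as host cells; luminescent beta-galactosidase reporter signal from transgenic T. cruzi replicating inside host cells; inhibitors lower the luminescence signal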
[24] = cytotoxicity toward NIH3T3 fibroblasts, dose response, counter-screen, cell-based, ATP luminescence, mouse fibroblasts (AID 2010); format: functional;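 also: cells exposed to compound for about 90 hours before reading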
[25] = A High Throughput Confirmatory Assay used to Identify Novel Compounds that Inhibit Mycobacterium Tuberculosis in the absence of Glycerol.; format: functional
Bcl-2-related protein A1 [26] = molecular target: T6, Bcl-2-related protein A1 (Mus musculus, UniProt Q07440); assay: Bfl-1 inhibitors blocking BH3 peptide binding, confirmation, biochemical, TR-FRET, mouse Bfl-1 (AID 621);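 also: TR-FRET binding of GST-Bfl-1 to FITC-labelled Bid peptide via terbium antibody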
T6 sequence (Q07440 whole entry): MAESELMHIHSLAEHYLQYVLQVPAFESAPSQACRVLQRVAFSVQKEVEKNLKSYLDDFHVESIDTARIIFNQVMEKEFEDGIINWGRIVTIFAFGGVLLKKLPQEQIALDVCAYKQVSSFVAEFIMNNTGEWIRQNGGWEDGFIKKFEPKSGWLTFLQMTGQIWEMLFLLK

Bcl-2-related protein A1 [27] = molecular target: T6, Bcl-2-related protein A1; assay: Bfl-1 binding inhibitors, SAR follow-up, biochemical, fluorescence polarization (AID 1070)

Glyceraldehyde-3-phosphate dehydrogenase, sequence (P04406 whole entry): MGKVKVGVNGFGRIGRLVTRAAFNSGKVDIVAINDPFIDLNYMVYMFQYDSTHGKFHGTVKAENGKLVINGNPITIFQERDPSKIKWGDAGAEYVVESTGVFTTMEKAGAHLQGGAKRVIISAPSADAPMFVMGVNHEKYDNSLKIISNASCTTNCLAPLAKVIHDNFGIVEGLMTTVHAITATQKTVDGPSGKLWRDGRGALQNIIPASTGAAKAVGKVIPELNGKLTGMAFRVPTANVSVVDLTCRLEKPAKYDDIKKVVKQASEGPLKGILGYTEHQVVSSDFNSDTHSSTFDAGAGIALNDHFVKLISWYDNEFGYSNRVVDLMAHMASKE
Photoreceptor-specific nuclear receptor, sequence (Q9Y5X4 whole entry): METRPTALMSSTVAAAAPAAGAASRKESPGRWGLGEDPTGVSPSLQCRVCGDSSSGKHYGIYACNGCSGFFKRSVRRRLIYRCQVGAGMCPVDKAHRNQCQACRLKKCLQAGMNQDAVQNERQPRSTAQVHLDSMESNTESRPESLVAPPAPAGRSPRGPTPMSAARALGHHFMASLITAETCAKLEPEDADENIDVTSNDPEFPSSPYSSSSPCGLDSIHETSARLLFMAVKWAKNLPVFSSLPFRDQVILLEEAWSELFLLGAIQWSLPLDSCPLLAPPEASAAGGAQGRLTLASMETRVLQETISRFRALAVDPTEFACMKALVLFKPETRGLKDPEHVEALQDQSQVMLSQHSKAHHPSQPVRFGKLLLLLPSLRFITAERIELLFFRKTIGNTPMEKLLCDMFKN
Luciferin 4-monooxygenase, sequence (P08659 whole entry): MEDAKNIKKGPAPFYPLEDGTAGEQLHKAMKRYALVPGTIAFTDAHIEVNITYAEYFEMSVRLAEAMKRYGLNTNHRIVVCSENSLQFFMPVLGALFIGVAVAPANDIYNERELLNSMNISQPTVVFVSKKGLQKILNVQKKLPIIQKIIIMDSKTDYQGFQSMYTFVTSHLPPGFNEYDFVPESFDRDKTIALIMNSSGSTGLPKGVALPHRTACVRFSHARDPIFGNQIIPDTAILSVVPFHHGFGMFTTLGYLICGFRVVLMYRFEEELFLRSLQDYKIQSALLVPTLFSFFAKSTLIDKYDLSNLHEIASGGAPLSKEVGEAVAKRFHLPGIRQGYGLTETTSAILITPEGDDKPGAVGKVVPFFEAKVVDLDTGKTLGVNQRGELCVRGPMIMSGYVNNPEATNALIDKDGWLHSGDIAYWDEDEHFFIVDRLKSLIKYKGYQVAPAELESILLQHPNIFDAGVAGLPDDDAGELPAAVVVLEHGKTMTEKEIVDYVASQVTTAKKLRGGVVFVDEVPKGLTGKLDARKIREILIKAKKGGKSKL
Estrogen receptor, sequence (P03372 whole entry): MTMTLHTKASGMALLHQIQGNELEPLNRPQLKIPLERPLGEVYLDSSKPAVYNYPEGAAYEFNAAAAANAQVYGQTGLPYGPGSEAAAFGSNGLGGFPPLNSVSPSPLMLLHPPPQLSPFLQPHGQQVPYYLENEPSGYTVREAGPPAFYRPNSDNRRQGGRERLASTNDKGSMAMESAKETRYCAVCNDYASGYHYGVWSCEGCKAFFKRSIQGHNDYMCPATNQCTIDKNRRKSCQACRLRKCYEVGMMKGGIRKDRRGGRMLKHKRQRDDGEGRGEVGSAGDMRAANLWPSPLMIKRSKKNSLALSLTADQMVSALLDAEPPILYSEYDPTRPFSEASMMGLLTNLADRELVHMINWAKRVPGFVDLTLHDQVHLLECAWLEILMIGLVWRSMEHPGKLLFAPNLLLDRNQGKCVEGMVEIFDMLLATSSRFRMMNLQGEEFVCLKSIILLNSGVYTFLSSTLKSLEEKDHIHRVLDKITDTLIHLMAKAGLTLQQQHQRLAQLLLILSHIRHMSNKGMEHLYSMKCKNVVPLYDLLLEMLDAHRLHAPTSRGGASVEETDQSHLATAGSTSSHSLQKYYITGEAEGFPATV
Induced myeloid leukemia cell differentiation protein Mcl-1, sequence (Q07820 whole entry): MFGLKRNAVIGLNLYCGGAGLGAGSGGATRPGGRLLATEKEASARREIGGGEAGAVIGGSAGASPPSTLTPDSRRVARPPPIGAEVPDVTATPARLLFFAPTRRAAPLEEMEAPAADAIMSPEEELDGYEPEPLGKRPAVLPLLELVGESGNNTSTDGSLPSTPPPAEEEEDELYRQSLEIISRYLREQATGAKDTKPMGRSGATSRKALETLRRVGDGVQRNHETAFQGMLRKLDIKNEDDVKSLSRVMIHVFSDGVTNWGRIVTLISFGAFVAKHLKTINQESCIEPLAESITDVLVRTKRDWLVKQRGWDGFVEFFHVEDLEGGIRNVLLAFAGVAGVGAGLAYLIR
Sphingosine 1-phosphate receptor 3, sequence (Q99500 whole entry): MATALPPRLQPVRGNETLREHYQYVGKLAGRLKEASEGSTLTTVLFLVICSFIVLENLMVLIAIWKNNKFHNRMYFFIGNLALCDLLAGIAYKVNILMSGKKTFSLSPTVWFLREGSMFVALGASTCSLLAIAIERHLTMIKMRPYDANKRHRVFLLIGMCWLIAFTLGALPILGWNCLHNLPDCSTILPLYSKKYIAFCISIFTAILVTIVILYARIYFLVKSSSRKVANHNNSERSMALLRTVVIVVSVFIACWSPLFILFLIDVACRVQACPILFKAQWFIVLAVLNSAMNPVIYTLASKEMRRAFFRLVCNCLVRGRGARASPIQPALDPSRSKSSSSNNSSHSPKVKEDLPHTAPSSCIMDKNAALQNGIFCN
Peroxisome proliferator-activated receptor gamma/Nuclear receptor coactivator 3, sequence (P37231 whole entry): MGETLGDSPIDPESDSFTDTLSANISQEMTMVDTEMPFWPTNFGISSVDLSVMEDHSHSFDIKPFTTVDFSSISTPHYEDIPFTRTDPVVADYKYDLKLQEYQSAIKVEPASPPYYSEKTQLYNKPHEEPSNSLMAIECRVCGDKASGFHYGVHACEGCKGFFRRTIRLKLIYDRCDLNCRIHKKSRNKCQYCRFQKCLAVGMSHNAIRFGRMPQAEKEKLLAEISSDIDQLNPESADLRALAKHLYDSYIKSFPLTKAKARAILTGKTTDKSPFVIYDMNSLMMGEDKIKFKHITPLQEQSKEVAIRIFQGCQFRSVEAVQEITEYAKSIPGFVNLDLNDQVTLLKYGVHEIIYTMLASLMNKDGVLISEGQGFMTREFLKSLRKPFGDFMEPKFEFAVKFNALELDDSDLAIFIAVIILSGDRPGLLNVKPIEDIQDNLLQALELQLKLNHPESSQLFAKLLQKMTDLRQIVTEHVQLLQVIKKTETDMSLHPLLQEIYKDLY
Peroxisome proliferator-activated receptor gamma/Nuclear receptor coactivator 3, sequence (Q9Y6Q9 whole entry, further chain): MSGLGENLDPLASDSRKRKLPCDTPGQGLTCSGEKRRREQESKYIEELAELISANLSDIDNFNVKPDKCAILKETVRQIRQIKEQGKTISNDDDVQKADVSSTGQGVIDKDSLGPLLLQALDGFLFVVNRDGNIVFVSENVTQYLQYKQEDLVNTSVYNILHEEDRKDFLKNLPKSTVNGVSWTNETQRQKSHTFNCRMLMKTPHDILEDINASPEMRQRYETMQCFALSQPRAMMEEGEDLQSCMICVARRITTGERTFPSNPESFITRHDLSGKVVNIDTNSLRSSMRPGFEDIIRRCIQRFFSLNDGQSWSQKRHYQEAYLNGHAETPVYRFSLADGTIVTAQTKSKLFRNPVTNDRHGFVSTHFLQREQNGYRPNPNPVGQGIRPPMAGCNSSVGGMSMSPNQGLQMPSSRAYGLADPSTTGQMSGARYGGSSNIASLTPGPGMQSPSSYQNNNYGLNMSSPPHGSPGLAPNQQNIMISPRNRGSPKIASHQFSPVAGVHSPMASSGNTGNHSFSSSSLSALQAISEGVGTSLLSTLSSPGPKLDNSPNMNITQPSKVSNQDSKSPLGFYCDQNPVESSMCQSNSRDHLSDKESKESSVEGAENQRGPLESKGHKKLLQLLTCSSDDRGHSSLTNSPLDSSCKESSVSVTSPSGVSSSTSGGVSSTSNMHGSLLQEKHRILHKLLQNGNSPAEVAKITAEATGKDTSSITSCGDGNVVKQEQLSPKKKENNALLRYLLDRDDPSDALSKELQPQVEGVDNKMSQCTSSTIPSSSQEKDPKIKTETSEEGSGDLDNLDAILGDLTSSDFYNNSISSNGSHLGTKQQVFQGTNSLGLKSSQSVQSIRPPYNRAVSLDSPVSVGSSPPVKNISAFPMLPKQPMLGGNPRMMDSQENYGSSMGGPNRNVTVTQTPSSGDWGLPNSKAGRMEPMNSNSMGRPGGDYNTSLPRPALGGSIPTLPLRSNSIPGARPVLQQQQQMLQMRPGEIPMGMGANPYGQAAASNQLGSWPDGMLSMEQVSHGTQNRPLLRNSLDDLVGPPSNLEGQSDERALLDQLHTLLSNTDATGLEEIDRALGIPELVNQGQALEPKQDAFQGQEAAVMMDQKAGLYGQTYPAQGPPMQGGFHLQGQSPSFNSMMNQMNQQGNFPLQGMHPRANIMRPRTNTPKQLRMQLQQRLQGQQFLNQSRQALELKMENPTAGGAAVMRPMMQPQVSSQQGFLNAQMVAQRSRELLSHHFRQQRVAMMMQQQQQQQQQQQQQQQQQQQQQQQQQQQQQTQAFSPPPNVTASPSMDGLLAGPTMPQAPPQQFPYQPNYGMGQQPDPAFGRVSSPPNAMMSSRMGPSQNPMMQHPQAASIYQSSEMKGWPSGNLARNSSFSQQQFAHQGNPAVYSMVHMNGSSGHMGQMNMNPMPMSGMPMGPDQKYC
5-hydroxytryptamine receptor 1E, sequence (P28566 whole entry): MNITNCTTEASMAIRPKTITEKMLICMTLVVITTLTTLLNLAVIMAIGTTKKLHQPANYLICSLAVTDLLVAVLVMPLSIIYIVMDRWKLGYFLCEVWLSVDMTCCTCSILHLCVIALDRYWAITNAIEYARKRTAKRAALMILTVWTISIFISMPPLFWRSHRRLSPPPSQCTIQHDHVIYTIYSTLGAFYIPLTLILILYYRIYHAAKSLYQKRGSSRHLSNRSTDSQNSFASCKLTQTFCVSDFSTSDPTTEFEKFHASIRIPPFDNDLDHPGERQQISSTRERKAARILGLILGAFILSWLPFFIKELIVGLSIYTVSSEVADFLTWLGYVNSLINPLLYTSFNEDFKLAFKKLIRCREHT

For `Cc1ccc(NC(=O)C(OC(=O)c2ccccc2Cl)c2ccccc2)cc1Cl` (stereo not drawn), the IC50 [1] was 5.28 µM (active) and the IC50 [2] was 9.24 µM (active).

With `CC1=CC(C)(C)N(C(=O)CNC2CCCCC2)c2cc(C)ccc21` the IC50 [3] was 12.3 µM (not active) and the IC50 [4] was 6.84 µM (active).

In the case of `O=C(COc1ccc2ccccc2c1)NCCNC(=O)COc1ccc2ccccc2c1`, the EC50 [5] is reported as 8.67 µM (active), the IC50 [6] is reported as 4.75 µM (active) and the EC50 [7] is reported as 8.38 µM (active). For the same molecule, the IC50 [8] was 5.82 µM (active) and the EC50 [9] was 47.8 µM (not active).

With `CCOC(=O)C1=C(O)/C(=C\c2ccc(CNC(=O)C(=O)Nc3ccc(C)c(C)c3)o2)N=C1C` the IC50 (Estrogen receptor beta) was > 50 µM (not active) and the IC50 (Estrogen receptor) was 40.5 µM (not active).

With `O=C(O)CSCC(=O)Nc1ccc(C2CCCCC2)cc1` the IC50 [10] was > 60 µM (not active), the IC50 [11] was > 39.8 µM (not active) and the EC50 [12] was 0.101 µM (active). The EC50 [13] was 2.2 µM (active), the AC50 [14] was 2.12 µM (active) and the IC50 [15] was > 100 µM (not active). The EC50 [16] was 0.395 µM (active), the EC50 [17] was 0.415 µM (active) and the EC50 [18] was 3.61 µM (active). The IC50 (Leucine aminopeptidase) was 12.6 µM (active), the EC50 (HT-1080) was > 50 µM (not active) and the IC50 (Jurkat) was 0.26 µM (active). For the same molecule, the IC50 [19] was > 80 µM (inactive).

With `CN1CCN(S(=O)(=O)c2ccc(NC(=S)NC(=O)c3ccc(Cl)cc3)cc2)CC1` the IC50 [20] was 4.19 µM (active) and the IC50 [21] was > 100 µM (active).

With `CCOc1ccccc1NC(=O)C(=O)CC(=O)c1ccc(OC)cc1` the EC50 [22] was 3.01 µM (active).

With `CCCCNc1nc(N(C)c2ccccc2)nc(-n2ccnc2)n1` the EC50 [23] was 0.55 µM (active), the EC50 [24] was > 30 µM (not active) and the IC50 [25] was > 100 µM (active).

For `O=C1C(Cl)=C(N2CCOCC2)C(=O)N1c1c(Cl)cccc1Cl`, the IC50 [15] was > 10 µM (inconclusive), the IC50 (Bcl-2-related protein A1 [26]) was > 100 µM (not active) and the IC50 (Bcl-2-related protein A1 [27]) was > 100 µM (not active).
